The assay has as its target T1, PLK1 (Homo sapiens, UniProt P53350).
T1 construct: Recombinant PLK1 protein (Active Motif 81429) in SPR; Flag-PBD in Co-IP-MS
The assay is described as follows: SPR (Biacore T200, immobilized PLK1); supported by T1rho NMR, CETSA, Co-IP-MS, in vitro kinase assay (IC50 […]). Type of assay: binding.

From article PMC12069692, “Pharmacological inhibition of PLK1/PRC1 triggers mitotic catastrophe and sensitizes lung cancers to chemotherapy” (Cell Death & Disease, 2025) come the findings set out here.

T1 sequence (P53350 2-603): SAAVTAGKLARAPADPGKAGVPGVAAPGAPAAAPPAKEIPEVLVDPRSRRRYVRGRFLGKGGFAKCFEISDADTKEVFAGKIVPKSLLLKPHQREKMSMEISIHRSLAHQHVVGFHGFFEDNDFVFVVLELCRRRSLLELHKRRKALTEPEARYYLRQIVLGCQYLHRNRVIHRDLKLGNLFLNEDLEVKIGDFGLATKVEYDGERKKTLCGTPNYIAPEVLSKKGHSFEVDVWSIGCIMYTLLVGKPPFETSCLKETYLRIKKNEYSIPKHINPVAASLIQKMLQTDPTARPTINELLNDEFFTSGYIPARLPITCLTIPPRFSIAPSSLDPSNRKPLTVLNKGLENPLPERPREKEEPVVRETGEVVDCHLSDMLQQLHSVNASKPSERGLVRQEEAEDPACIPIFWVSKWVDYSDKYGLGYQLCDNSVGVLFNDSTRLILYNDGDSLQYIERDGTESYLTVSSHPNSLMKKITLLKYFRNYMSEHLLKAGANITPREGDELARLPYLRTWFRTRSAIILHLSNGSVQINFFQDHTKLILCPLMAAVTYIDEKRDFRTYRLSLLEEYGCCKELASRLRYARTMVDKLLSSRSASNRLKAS

As usually defined, the Kd is the constant that tells how readily two partners part at equilibrium. Low readings indicate higher affinity, high ones lower affinity. Turning to `CN(C)CCN1C(=O)c2cccc3c(S(=O)(=O)NCc4ccc(C(F)(F)F)cc4)ccc(c23)C1=O` [B4], the Kd was roughly 5.6 µM.
